Consider one compound from patent US8278348B2, “Chondropsin-class antitumor V-atpase inhibitor compounds, compositions and methods of use thereof” (priority 2002, dated 2012).

Common to all, as to assay: Two day XTT cytotoxicity assay
Type in all cases: cell-based

Assay [1] has as its system A549. The note with it: Homo sapiens, Breast. An excerpt: (§1) This example describes the cytoxicity of poecillastrin A (1), isolated in Example 1. The cytotoxicity assay, details of which have been described previously (Bokesch et al., J. Nat. Prod. 1999, 62, 633-635), utilized melanoma (LOX), breast […], ovarian (OVCAR-3), and non-small cell lung (SNB-19) human tumor cell lines and IC-2^WT and IC-2^V814 murine mast cell lines (Hashimoto et al., Am. J. Pathol. 1996, 148, 189-200).
(§2) The in vitro 10 cell-line bioassay was a two day bioassay. Cells were grown in RPMI-1640 (Rosweli Park Memorial Institute) without L-glutamine, supplemented with 10% fetal bovine serum, 5.0 mL of a 200 mM glutamine stock, and 0.5 mL of gentamicin and plated out in T-162 cm^2 flasks. Once the cells were confluent, they were harvested and plated in 96-well microtiter flat-bottom plates at a seeding density of 50-10,000 cells per well, to yield optical density readings in the range of 1-2.0, and incubated for 1 h in a 37° C., 5% CO2 incubator. After the 1 h incubation, the cells were then introduced to the sample of poecillastrin A, via a Beckman Biomek Workstation-1000. The Biomek-1000 performed seven serial dilutions in a 96-well round-bottom plate and then transferred aliquots of 100 μL to the assay plate. The plate was then returned to the incubator for […]. After the two day incubation, the cells were exposed to tetrazolium salt, 2,3-bis[2-methoxy-4-nitro-5-sulfophenyl]-2H-tetrazolium-5-carboxanilide (XTT), for a 4 h incubation in a 37° C. incubator, where viable cells reduced the tetrazolium salt to a colored formazan product. Once the incubation was complete, the plates were read in a dual wavelength mode at 450 nm, with a 650 nm reference, using a SpectraMAX 250 (Molecular Devices) plate reader. Resulting data for each cell line are found in Table 3.

Assay [2] relates to SNB-19. The note with it: Homo sapiens, Non-small cell lung.
From the text: as §1, §2

In assay [3] the test system is OVCAR-3. The note with it: Homo sapiens, Ovarian.
From the text: as §1, §2

In assay [4] the test system is LOX. The note with it: Homo sapiens, Melanoma.
From the text: as §1, §2

Assay [5] concerns IC-2 V814. The note with it: Mus musculus, Murine mast cell.
From the text: as §1, §2

Assay [6] relates to IC-2 WT. The note with it: Mus musculus, Murine mast cell.
From the text: as §1, §2

Molecules are shown by their SMILES.

With `COC1/C=C/C=C/CC/C=C/C=C/C(=O)NC(C(O)C(=O)O)C(=O)OC(C(C)C(O)C(NC(=O)C(C)C(O)CCC(C)C(O)/C(C)=C/C(C)(C)C(O)C(CC(C)C)NC(=O)/C=C/C(C)(C)C(=O)C(C)C(O)C(C)C)C(C)O)C/C=C(\C)C(O)C(C)/C=C(\C)C(O)C(C)C(O)CC2CC(C)CC1O2` (stereo not drawn) [Poecillastrin A, poecillastrin A], the IC50 (in general, the concentration that gives 50% inhibition) in assay [1] was over 10000 nM; in assay [2] it was over 10000 nM; in assay [3], 28 nM; in assay [4] it was 14 nM; in assay [5] it was 546 nM; in assay [6] it was 206 nM.
